Laboratory results taken from patent US20260146046A1, “BICYCLIC FERROPORTIN INHIBITORS” (Vifor (International) AG, priority 2022, published 2026).

Biological target: T1, ferroportin (Fpn) (Mus musculus, UniProt Q9JHI9)
T1 construct: endogenous in cells; host or cells: J774 mouse macrophage cell line, induced with Fe(III)NTA
T1 sequence (Q9JHI9 1-570): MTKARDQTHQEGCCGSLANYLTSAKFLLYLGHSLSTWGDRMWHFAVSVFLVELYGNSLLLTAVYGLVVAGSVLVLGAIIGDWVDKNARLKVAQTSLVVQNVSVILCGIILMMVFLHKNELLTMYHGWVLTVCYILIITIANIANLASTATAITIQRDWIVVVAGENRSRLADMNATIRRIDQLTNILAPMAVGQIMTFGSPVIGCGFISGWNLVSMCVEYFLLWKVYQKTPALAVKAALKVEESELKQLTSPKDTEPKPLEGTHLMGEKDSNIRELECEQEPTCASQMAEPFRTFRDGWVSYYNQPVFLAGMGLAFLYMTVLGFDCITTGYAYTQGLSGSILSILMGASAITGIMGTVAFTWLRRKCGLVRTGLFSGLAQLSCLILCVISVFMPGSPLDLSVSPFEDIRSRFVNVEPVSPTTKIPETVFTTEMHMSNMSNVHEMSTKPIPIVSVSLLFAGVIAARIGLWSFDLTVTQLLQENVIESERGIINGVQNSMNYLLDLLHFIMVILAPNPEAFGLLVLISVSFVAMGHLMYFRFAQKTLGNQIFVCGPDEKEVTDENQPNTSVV
Assay: Hepcidin Internalization Assay (J774)
Type: cell-based
Settings: J774 cells, 25 nM TMR-hepcidin, 2 hours; average of multiple measurements; read-out: Average (AVE) IC50 of Fpn inhibitors in the hepcidin internalization assay
Source text: This cellular assay allows quantification of the binding of hepcidin to ferroportin (Fpn) through microscopic detection of internalization of a fluorescently labeled hepcidin into J774 cells. […] Binding of hepcidin to Fpn triggers internalization and degradation of both hepcidin and Fpn. […] Therefore, microscopic detection of cell-associated TMR fluorescence is a measure of hepcidin binding to Fpn and internalization of hepcidin and Fpn. If TMR-hepcidin is prevented from binding to Fpn, cellular TMR fluorescence remains low (Durrenberger et al, 2013). The effect of small molecular weight Fpn inhibitor compounds in this assay was evaluated in vitro as described below. […] Cat. 655090) and grown at 37° C. with 5% CO2. After overnight incubation, cells were washed 3 times with pre-warmed DMEM w/o phenol red, 30 μl/well of DMEM w/o phenol red was added after the final wash and 10 μl/well of dilution series of test compounds were added in triplicates. […] Cells were incubated in a total volume of 50 μl at 37° C. with 5% CO2 for 2 hours, then Hoechst 33342 dye was added to a final concentration of 0.5 μg/ml to stain nuclei and further incubated for 10 min. at 37° C. with 5% CO2. […] After removal of the paraformaldehyde solution, cells were washed 3 times with PBS leaving 100 μl per well and the plates were sealed with foil plate seal. […] The acquired image data was analysed with the […] analysis software. […] IC50 values were calculated with the Sum(Mean) raw data using “log(inhibitor) vs. response” curve fitting of Prism 5 software (GraphPad Software Inc., version 5.02). For each data set the fit of the “log(inhibitor) vs. response (three parameters)” model was compared to the fit of the “log(inhibitor) vs. response-Variable slope (four parameters)” model and the IC50 data of the preferred model was used.

IC50 [nM] | Structure (SMILES)
810 | CN(C)CCn1c(CCNCCc2nc3c(NCc4ncccc4F)nccc3o2)nc2cc3c(cc21)OCCO3 [Example Compound No. 14, 2-(2-((2-(1-(2-(dimethylamino)ethyl)-6,7-dihydro-1H-[1,4]dioxino[2′,3′:4,5]benzo[1,2-d]imidazol-2-yl)ethyl)amino)ethyl)-N-((3-fluoropyridin-2-yl)methyl)oxazolo[4,5-c]pyridin-4-amine]
15 | Fc1cccnc1CNc1nccc2oc(CCNCCc3nc4ccccc4n3CC3CC3)nc12 [Example Compound No. 2, 2-(2-((2-(1-(cyclopropylmethyl)-1H-benzo[d]imidazol-2-yl)ethyl)amino)ethyl)-N-((3-fluoropyridin-2-yl)methyl)oxazolo[4,5-c]pyridin-4-amine]
4 | CC(C)OCCn1c(CCNCCc2nc3c(NCc4ncccc4F)nccc3o2)nc2ccccc21 [Example Compound No. 4, N-((3-fluoropyridin-2-yl)methyl)-2-(2-((2-(1-(2-isopropoxyethyl)-1H-benzo[d]imidazol-2-yl)ethyl)amino)ethyl)oxazolo[4,5-c]pyridin-4-amine]
